Laboratory results as given in PMC5658362 (Scientific Reports, 2017).
Entries after “also recorded” stand apart in the source; their conditions may differ. Counter-ions that a name gives are not always drawn.

Assays:
TlpC LBD native = TlpC LBD native (Helicobacter pylori, UniProt O24911); assay: ITC titration of TlpC LBD with ligand; type: binding; conditions: for heat release or absorption on titration (binding): 5 mM ligand into 10 µM protein
Description: (§1) The expression vectors for single-point variants of TlpC LBD in which S104, Y151, K153, N213, I218 or Y285 were replaced by alanine, and Y249 by phenylalanine, were prepared from a TlpC-expressing plasmid described previously. This plasmid expresses codon-optimised H. pylori 26695 TlpC LBD consisting of amino acid residues 34–297 (Fig. 1a). Mutants were created using the QuikChange Mutagenesis Kit (Stratagene). TlpC LBD and its variants were expressed and purified following the previously published procedure.
(§2) Measurements were performed on a MicroCal VP-ITC instrument microcalorimeter (MicroCal) at 25 °C. […] The data was fitted to a single-site binding model using non-linear least-squares regression (Origin 7, OriginLab, USA), yielding the binding enthalpy ∆H, dissociation constant K D, and binding entropy […]. Each experiment was repeated three times.

McpP = system: McpP; set-up: method as in PMID 26048936; conditions: P. aeruginosa sCACHE receptor McpP; cited from earlier work
[1] = system: wild-type H. pylori PMSS1; assay: Swimming behaviour (direction change) chemotaxis assay, wild type; type: cell-based, Helicobacter pylori
ΔtlpC H. pylori PMSS1 = assay: Swimming behaviour (direction change) chemotaxis assay, ΔtlpC mutant; type: cell-based, Helicobacter pylori
TlpC LBD = target: T1, TlpC LBD (Helicobacter pylori, UniProt O24911); assay: ITC titration of TlpC LBD variant with lactate; type: binding; conditions: text prints Y285A substitution
T1 sequence (O24911 34-297 Y285F): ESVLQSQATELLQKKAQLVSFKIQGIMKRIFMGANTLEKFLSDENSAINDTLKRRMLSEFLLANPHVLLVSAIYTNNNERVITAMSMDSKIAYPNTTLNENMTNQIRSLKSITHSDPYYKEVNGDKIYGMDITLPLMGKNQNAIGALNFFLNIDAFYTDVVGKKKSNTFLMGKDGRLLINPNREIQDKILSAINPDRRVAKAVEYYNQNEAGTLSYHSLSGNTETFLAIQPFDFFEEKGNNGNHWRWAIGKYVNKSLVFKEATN

H. pylori = conditions: cited from earlier work
TlpC LBD Y151A = target: T2, TlpC LBD Y151A (Helicobacter pylori, UniProt O24911, Y151A); assay: ITC titration of TlpC LBD variant with lactate; type: binding
T2 sequence (O24911 34-297 Y151A): T1 sequence (O24911 34-297 Y285F)
Description: as §1, §2

TlpC LBD I218A = target: T3, TlpC LBD I218A (Helicobacter pylori, UniProt O24911, I218A); assay: ITC titration of TlpC LBD variant with lactate; type: binding
T3 sequence (O24911 34-297 I218A): T1 sequence (O24911 34-297 Y285F)
Description: as §1, §2

TlpC LBD K153A = target: T4, TlpC LBD K153A (Helicobacter pylori, UniProt O24911, K153A); assay: ITC titration of TlpC LBD variant with lactate; type: binding
T4 sequence (O24911 34-297 K153A): T1 sequence (O24911 34-297 Y285F)
Description: as §1, §2

TlpC LBD N213A = target: T5, TlpC LBD N213A (Helicobacter pylori, UniProt O24911, N213A); assay: ITC titration of TlpC LBD variant with lactate; type: binding
T5 sequence (O24911 34-297 N213A): T1 sequence (O24911 34-297 Y285F)
Description: as §1, §2

TlpC LBD S104A = target: T6, TlpC LBD S104A (Helicobacter pylori, UniProt O24911, S104A); assay: ITC titration of TlpC LBD variant with lactate; type: binding
T6 sequence (O24911 34-297 S104A): T1 sequence (O24911 34-297 Y285F)
Description: as §1, §2

Question: With `O=C(O)CC(=O)C(=O)O` [oxaloacetate] as the compound, how does the “heat release or absorption on titration (binding)” value (“heat release or absorption” below) (TlpC LBD native) read?
Answer: The value was “no significant heat release or absorption”.

Question: For `O=C(O)CC(O)C(=O)O` (centres unmarked) [malate], which “heat release or absorption” value (TlpC LBD native) is on record?
Answer: The value was “no significant heat release or absorption”.

Question: For `CC(=O)C(=O)O` [pyruvate], which “binding to McpP” value (McpP) is on record?
Answer: The value was “binds”.

Question: What about the “heat release or absorption” value (TlpC LBD native) of the same compound?
Answer: Its value is “no significant heat release or absorption”.

Question: What does the source list for `CC(O)C(=O)O` (centres unmarked) [lactate]?
Answer: chemotactic (attractant) response, direction changes in 3 s ([1]; 0.1 mM lactate): significant response; also recorded: strongest; chemotactic (attractant) response, direction changes in 3 s ([1]; 1.0 mM lactate): detectable; chemotactic (attractant) response, direction changes in 3 s ([1]; 10 mM lactate): not detectable; also recorded: did not elicit a positive chemotactic response; chemotactic (attractant) response, direction changes in 3 s ([1]; concentrations higher than 0.1 mM): lost the response; optimal concentration at which lactate is sensed as attractant ([1]; order of magnitude, tested 0.1-10 mM): 0.1 mM; chemotactic response to lactate (ΔtlpC H. pylori PMSS1; all tested concentrations (0.1, 1, 10 mM)): abolished the chemotactic response; also recorded: drastically reduced; Kd (McpP): 107 µM; effect of substitution on lactate binding (TlpC LBD): abolished the binding; concentration with inhibitory effect on H. pylori growth (H. pylori): ≥ 10 mM; inhibitory effect on H. pylori viability among tested SCFA (H. pylori; short chain fatty acids secreted by LAB): strongest inhibitory effect; Enthalpy, ∆H (TlpC LBD Y151A): −12,040 ± 250.2 cal/mol; Entropy, ∆S (TlpC LBD Y151A): −24.1 ± 1.0 cal/mol/degree; Enthalpy, ∆H (TlpC LBD I218A): −18,145.0 ± 49.0 cal/mol; Entropy, ∆S (TlpC LBD I218A): −49.4 ± 0.2 cal/mol/degree; Enthalpy, ∆H (TlpC LBD K153A): −12,730 ± 345.0 cal/mol; Entropy, ∆S (TlpC LBD K153A): −27.5 ± 1.0 cal/mol/degree; effect of substitution on lactate binding (TlpC LBD N213A): abolished the binding; Enthalpy, ∆H (TlpC LBD S104A): −13,105 ± 318.0 cal/mol; Entropy, ∆S (TlpC LBD S104A): −28.2 ± 1.0 cal/mol/degree; Enthalpy, ∆H (TlpC LBD native; native TlpC LBD): −21,323.3 ± 713.0 cal/mol; Entropy, ∆S (TlpC LBD native; native TlpC LBD): −54.1 ± 2.0 cal/mol/degree

Question: Which “binding to McpP” value (McpP) does the source give for `CCC(=O)O` [propionate] here?
Answer: The value was “binds”.

Question: Which “chemotaxis response (repellent)” value (ΔtlpC H. pylori PMSS1; 10 mM HCl) does the source give for `Cl` [HCl] here?
Answer: Its value is “retained chemotaxis responses”.

Question: For `CC(=O)O` [acetate], which “binding to McpP” value (McpP) is on record?
Answer: Its value is “binds”.

Question: Which “chemotaxis response (attractant)” value (ΔtlpC H. pylori PMSS1; 50 μM dipyridyl) does the source give for `c1ccc(-c2ccccn2)nc1` [dipyridyl] here?
Answer: The value was “retained chemotaxis responses”.
